Where two headings read alike, the source gives them in different places. Square brackets hold non-standard residues; d marks the D form. Ends that are not written are not given here. Peptide text beside a SMILES is read from it. hLys = NCCCCC[C@H](N)C(=O)O
Experiments:
Thrombin [1] = molecular target: T1, Thrombin (Homo sapiens, UniProt P00734); experiment: Thrombin inhibition (Ki); format: biochemical
Source text: (§1) Thrombin is a major control point of the blood coagulation cascade, and inhibitors are of interest to combat thrombotic diseases.

[2] = Source text: as §1
Trypsin = molecular target: T2, Trypsin (Bos taurus, UniProt P00760); experiment: Trypsin inhibition (Ki); format: biochemical; conditions: at its limit of solubility in water
T2 construct: gene PRSS1
T2 sequence (P00760 24-246): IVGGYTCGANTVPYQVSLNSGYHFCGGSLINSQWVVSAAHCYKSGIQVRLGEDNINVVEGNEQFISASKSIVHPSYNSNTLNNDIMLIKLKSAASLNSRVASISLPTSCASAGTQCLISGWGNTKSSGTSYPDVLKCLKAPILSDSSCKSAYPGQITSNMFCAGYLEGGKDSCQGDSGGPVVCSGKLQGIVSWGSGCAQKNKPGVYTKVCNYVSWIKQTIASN
Source text: as §1

Thrombin [3] = molecular target: T1, Thrombin; experiment: Competitive inhibition of thrombin in vitro, chromogenic substrate (D)-Phe-Pip-Arg-p-NA; format: biochemical; parameters: 0.01 units of human thrombin (Sigma); purchased Sigma; conditions: for % Inhibition: peptide 20 μM, 0.01 units human thrombin, pH 7.5, 25° C.
Description: A (D)-Phe-Pro-Arg-Ala analogue containing non-natural amino acid (7) (as the racemic mixture in the side chain) in place of Arg was synthesized and compared to (D)-Phe-Pro-Arg-Ala as a competitive inhibitor of thrombin in vitro. The molecule referred to as 7 is Formula I, R1=[…], R2=H, R3=H, R13=H and N=4. The stereochemistry at C2 is racemic (equal D- and L-forms present).
Peptides were incubated individually at 20 μM concentrations with 0.01 units of human thrombin (Sigma) and saturating concentrations of the chromogenic substrate (D)-Phe-Pip-Arg-p-NA at pH 7.5 and 25° C. in 0.1 M phosphate buffer containing 0.2 M NaCl and 0.5% PEG (5c). Initial rates were determined by monitoring formation of p-NA at 405 nm in the absence and presence of the indicated peptides to determine % inhibition. Standard errors were<5%.

NT receptor = experiment: Hypothermia in rats after I.V. or I.C. injection of NT(8-13) derivatives (brain uptake across the BBB); format: in vivo
Source text: Peptides 36, 39, 42, and 45 are NT(8-13) with non-natural amino acids 32-35 (Scheme L), respectively, were substituted for the Arg^(8) residue.

[4] = in vivo; cited from earlier work

## N=C(N)NCCC[C@H](N)C(=O)O [Arg, arginine, reference compound]
Thrombin [1]; as the N-α-DNS, —COO-Pip derivatives, read-out: Thrombin K12
  Ki: 83 ± 24 nM
[2]
  RP-HPLC Retention Time: 20.9 ± 0.02 min

## CCNC(=N)NCCC[C@H](N)C(=O)O [Compound 31, N(γ)ethyl-Arg]
Thrombin [1]
  Ki: 190 ± 66 nM
Thrombin [1]; KI (Thrombin/Trypsin), 31 versus arginine
  increase in thrombin/trypsin Ki selectivity ratio compared with arginine: ≥ 60 fold
Trypsin
  inhibition of trypsin at limit of solubility in water: does not inhibit trypsin
[2]; compared with arginine
  lipophilicity based on RP-HPLC: more lipophilic
[2]; measure of lipophilicity, as the N-α-DNS, —COO-Pip derivatives
  RP-HPLC Retention Time: 23.1 ± 0.01 min

## (D)-Phe-Pro-Arg-Ala ([dF]PRA) [reference compound]
Thrombin [3]
  % Inhibition: 65%

## (D)-Phe-Pro-7-Ala
Thrombin [3]
  % Inhibition: 82%
Thrombin [3]; relative to (D)-Phe-Pro-Arg-Ala
  better competitive inhibitor than the parent peptide: ~25%

## CC[C@H](C)[C@H](NC(=O)[C@H](Cc1ccc(O)cc1)NC(=O)[C@@H]1CCCN1C(=O)[C@H](CCCNC(=N)N)NC(=O)[C@@H](N)CCCCCN)C(=O)N[C@@H](CC(C)C)C(=O)O [Peptide 36] (H-[hLys]RPYIL-OH)
NT receptor; brain uptake
  improvement upon the previously evaluated peptides NT-1 and NT66L: ≥ 300 fold
NT receptor; rats, single 0.2-mg I.V. dose versus I.C., estimated by potency ratios (FIG. 1B)
  uptake into brain: roughly 28%

## Arg^(8)-Arg^(9)-Pro^(10)-Tyr^(11)-Ile^(12)-Leu^(13)-COOH [NT(8-13), reference compound]
NT receptor; rats, I.V., 1.0 mg doses (FIG. 1A)
  activity (hypothermia) / uptake into brain after I.V. injection: no activity
[4]
  crossing of the blood brain barrier: does not cross the blood brain barrier

Reference: US6858396B2, “Positively charged non-natural amino acids, methods of making and using thereof in peptides” (Medical University of South Carolina, priority 1996, dated 2005)
